Assay results: the NIST ThermoML archive (doi:10.1021/je7002836)
± gives the expanded uncertainty stated by the source.

What was measured:
[1] = 101 kPa, Liquid
[2] = molar heat capacity at constant pressure; details: 101 kPa, Liquid
[3] = xn = mol fraction of the nth substance listed; details: 101 kPa, Liquid
[4] = molar heat capacity at constant pressure; xn = mol fraction of the nth substance listed; details: 101 kPa, Liquid

Compound: CCCC[n+]1cccc(C)c1.F[B-](F)(F)F [1-butyl-3-methylpyridinium tetrafluoroborate]
- mass density ([1]; 293.15 K): 1188.6 ± 7 kg/m3
- mass density ([1]; 298.15 K): 1185.2 ± 6.9 kg/m3
- mass density ([1]; 303.15 K): 1181.7 ± 6.8 kg/m3
- mass density ([1]; 308.15 K): 1178.3 ± 6.7 kg/m3
- mass density ([1]; 313.15 K): 1174.9 ± 6.6 kg/m3
- mass density ([1]; 318.15 K): 1171.6 ± 6.6 kg/m3
- molar heat capacity at constant pressure ([2]; 293.15 K): 385.8 ± 12 J/K/mol
- molar heat capacity at constant pressure ([2]; 298.15 K): 387.7 ± 12 J/K/mol
- molar heat capacity at constant pressure ([2]; 303.15 K): 390.1 ± 12 J/K/mol
- molar heat capacity at constant pressure ([2]; 308.15 K): 392.8 ± 12 J/K/mol
- molar heat capacity at constant pressure ([2]; 313.15 K): 395.9 ± 12 J/K/mol
- molar heat capacity at constant pressure ([2]; 318.15 K): 399.3 ± 12 J/K/mol

Compound: CCCC[n+]1cccc(C)c1.F[B-](F)(F)F [1-butyl-3-methylpyridinium tetrafluoroborate] + C[N+](=O)[O-]
- mass density ([3]; 293.15 K, x1 = 1): 1188.6 ± 3.6 kg/m3
- mass density ([3]; 298.15 K, x1 = 1): 1185.2 ± 3.6 kg/m3
- mass density ([3]; 303.15 K, x1 = 1): 1181.7 ± 3.5 kg/m3
- mass density ([3]; 308.15 K, x1 = 1): 1178.3 ± 3.5 kg/m3
- mass density ([3]; 313.15 K, x1 = 1): 1174.9 ± 3.5 kg/m3
- mass density ([3]; 318.15 K, x1 = 1): 1171.6 ± 3.4 kg/m3
- molar heat capacity at constant pressure ([4]; 293.15 K, x1 = 1): 385.8 ± 12 J/K/mol
- molar heat capacity at constant pressure ([4]; 298.15 K, x1 = 1): 387.7 ± 12 J/K/mol
- molar heat capacity at constant pressure ([4]; 303.15 K, x1 = 1): 390.1 ± 12 J/K/mol
- molar heat capacity at constant pressure ([4]; 308.15 K, x1 = 1): 392.8 ± 12 J/K/mol
- molar heat capacity at constant pressure ([4]; 313.15 K, x1 = 1): 395.9 ± 12 J/K/mol
- molar heat capacity at constant pressure ([4]; 318.15 K, x1 = 1): 399.3 ± 12 J/K/mol

Compound: CCO [ethanol]
- mass density ([1]; 293.15 K): 789.6 ± 3.7 kg/m3
- mass density ([1]; 298.15 K): 785.3 ± 3.7 kg/m3
- mass density ([1]; 303.15 K): 781 ± 3.8 kg/m3
- mass density ([1]; 308.15 K): 776.7 ± 3.8 kg/m3
- mass density ([1]; 313.15 K): 772.3 ± 3.9 kg/m3
- mass density ([1]; 318.15 K): 767.8 ± 3.9 kg/m3
- molar heat capacity at constant pressure ([2]; 293.15 K): 111.3 ± 3.4 J/K/mol
- molar heat capacity at constant pressure ([2]; 298.15 K): 113.3 ± 3.5 J/K/mol
- molar heat capacity at constant pressure ([2]; 303.15 K): 115.3 ± 3.6 J/K/mol
- molar heat capacity at constant pressure ([2]; 308.15 K): 117.5 ± 3.6 J/K/mol
- molar heat capacity at constant pressure ([2]; 313.15 K): 119.7 ± 3.7 J/K/mol
- molar heat capacity at constant pressure ([2]; 318.15 K): 122.1 ± 3.8 J/K/mol

Compound: CCO [ethanol] + CCCC[n+]1cccc(C)c1.F[B-](F)(F)F
- mass density ([3]; 293.15 K, x2 = 0): 789.6 ± 3.7 kg/m3
- mass density ([3]; 298.15 K, x2 = 0): 785.3 ± 3.7 kg/m3
- mass density ([3]; 303.15 K, x2 = 0): 781 ± 3.8 kg/m3
- mass density ([3]; 308.15 K, x2 = 0): 776.7 ± 3.8 kg/m3
- mass density ([3]; 313.15 K, x2 = 0): 772.3 ± 3.9 kg/m3
- mass density ([3]; 318.15 K, x2 = 0): 767.8 ± 3.9 kg/m3
- molar heat capacity at constant pressure ([4]; 293.15 K, x2 = 0): 111.3 ± 3.4 J/K/mol
- molar heat capacity at constant pressure ([4]; 298.15 K, x2 = 0): 113.3 ± 3.5 J/K/mol
- molar heat capacity at constant pressure ([4]; 303.15 K, x2 = 0): 115.3 ± 3.6 J/K/mol
- molar heat capacity at constant pressure ([4]; 308.15 K, x2 = 0): 117.5 ± 3.6 J/K/mol
- molar heat capacity at constant pressure ([4]; 313.15 K, x2 = 0): 119.7 ± 3.7 J/K/mol
- molar heat capacity at constant pressure ([4]; 318.15 K, x2 = 0): 122.1 ± 3.8 J/K/mol

Compound: C[N+](=O)[O-] [nitromethane]
- mass density ([1]; 293.15 K): 1140.2 ± 3.3 kg/m3
- mass density ([1]; 298.15 K): 1133.4 ± 3.2 kg/m3
- mass density ([1]; 303.15 K): 1126.6 ± 3.1 kg/m3
- mass density ([1]; 308.15 K): 1119.7 ± 3.1 kg/m3
- mass density ([1]; 313.15 K): 1112.9 ± 3 kg/m3
- mass density ([1]; 318.15 K): 1106 ± 2.9 kg/m3
- molar heat capacity at constant pressure ([2]; 293.15 K): 106.6 ± 3.3 J/K/mol
- molar heat capacity at constant pressure ([2]; 298.15 K): 106.9 ± 3.3 J/K/mol
- molar heat capacity at constant pressure ([2]; 303.15 K): 107.3 ± 3.3 J/K/mol
- molar heat capacity at constant pressure ([2]; 308.15 K): 107.7 ± 3.3 J/K/mol
- molar heat capacity at constant pressure ([2]; 313.15 K): 108.2 ± 3.4 J/K/mol
- molar heat capacity at constant pressure ([2]; 318.15 K): 108.6 ± 3.4 J/K/mol

Compound: O [water] + CCCC[n+]1cccc(C)c1.F[B-](F)(F)F
- mass density ([3]; 308.15 K, x2 = 0): 994.1 ± 2.3 kg/m3
- molar heat capacity at constant pressure ([4]; 293.15 K, x2 = 0): 75.4 ± 2.3 J/K/mol
- molar heat capacity at constant pressure ([4]; 298.15 K, x2 = 0): 75.3 ± 2.3 J/K/mol
- molar heat capacity at constant pressure ([4]; 303.15 K, x2 = 0): 75.3 ± 2.3 J/K/mol
- molar heat capacity at constant pressure ([4]; 308.15 K, x2 = 0): 75.2 ± 2.3 J/K/mol
- molar heat capacity at constant pressure ([4]; 313.15 K, x2 = 0): 75.2 ± 2.3 J/K/mol
- molar heat capacity at constant pressure ([4]; 318.15 K, x2 = 0): 75.3 ± 2.3 J/K/mol
